Experimental data taken from patent US9499538B2, “Estrogen receptor modulators and uses thereof” (Seragon Pharmaceuticals, Inc., priority 2012, dated 2016).

What was measured:
ER-α in MCF-7 cells = molecular target: T1, ER-α in MCF-7 cells (Homo sapiens, UniProt P03372); assay: Breast Cancer Cell ER-α In Cell Western Assay (SP1); type: cell-based; conditions: 4 or 24 hr post compound addition; for Emax: MCF7, SP1 antibody, read-out: ER-α In Cell Western Assay (SP1) Max Response; for DC50: SP1 antibody, read-out: ER-α In Cell Western Assay (SP1) IC50
T1 construct: endogenous in cells; host or cells: MCF-7
T1 sequence (P03372 1-595): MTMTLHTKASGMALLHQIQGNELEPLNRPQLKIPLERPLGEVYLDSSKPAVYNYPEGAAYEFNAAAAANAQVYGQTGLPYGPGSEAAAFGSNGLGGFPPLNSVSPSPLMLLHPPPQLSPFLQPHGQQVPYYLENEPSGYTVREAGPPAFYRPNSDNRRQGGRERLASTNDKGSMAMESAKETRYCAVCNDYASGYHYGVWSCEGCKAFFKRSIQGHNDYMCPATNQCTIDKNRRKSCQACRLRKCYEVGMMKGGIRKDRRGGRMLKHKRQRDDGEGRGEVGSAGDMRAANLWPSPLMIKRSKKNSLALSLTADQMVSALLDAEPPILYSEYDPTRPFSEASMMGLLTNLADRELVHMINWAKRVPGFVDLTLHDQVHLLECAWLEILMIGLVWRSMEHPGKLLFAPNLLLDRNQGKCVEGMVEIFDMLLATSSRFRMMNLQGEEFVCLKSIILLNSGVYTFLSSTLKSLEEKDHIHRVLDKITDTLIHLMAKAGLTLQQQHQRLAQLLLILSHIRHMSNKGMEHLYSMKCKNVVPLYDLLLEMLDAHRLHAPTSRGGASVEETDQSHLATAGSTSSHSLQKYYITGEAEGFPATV
Outline: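 ER-α levels quantified by in-cell western: SP1 signal normalised to DRAQ5 DNA stain, relative to untreated cells (% ER). Compounds at 0.3–0.000003 μM final, 11-point semilog series, 4 or 24 h exposure of MCF-7 cells grown in charcoal-stripped serum.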

MCF-7 cells = assay: Breast Cancer Cell Viability Assays (MCF-7, CellTiter-Glo); type: cell-based; conditions: 5 days' compound exposure; for IC50: Homo sapiens, MCF7, 120 h
Outline: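 Percent viability, background-subtracted against untreated wells, was taken from CellTiter-Glo luminescence after 5 days' exposure of MCF-7 cells. Compounds were tested at eleven semilog concentrations, final 0.3–0.000003 μM, in RPMI containing 10% FBS.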

| Emax (ER-α in MCF-7 cells) [%] | DC50 (ER-α in MCF-7 cells) [nM] | IC50 (MCF-7 cells) [nM] | Structure (SMILES) | MCF7 Viability Assay Max Response (MCF-7 cells) |
| --- | --- | --- | --- | --- |
| ≥ 40 | ≤ 100 | ≤ 100 | O=C(O)/C=C/c1ccc(/C(=C(\c2ccc(OC(F)(F)F)cc2Cl)C2CCC2)c2ccc3scnc3c2)cc1 [Example 241, (E)-3-(4-((E)-1-(Benzo[d]thiazol-5-yl)-2-(2-chloro-4-(trifluoromethoxy)phenyl)-2-cyclobutylvinyl)phenyl)acrylic acid] | ++ (++ = a single % value ≧ 40%) |
| ≥ 40 | ≤ 100 | ≤ 100 | N#Cc1cc(C(F)(F)F)ccc1/C(=C(\c1ccc(/C=C/C(=O)O)cc1)c1ccc2scnc2c1)C1CCC1 [Example 242, (E)-3-(4-((E)-1-(Benzo[d]thiazol-5-yl)-2-(2-cyano-4-(trifluoromethyl)phenyl)-2-cyclobutylvinyl)phenyl)acrylic acid] | ++ (++ = a single % value ≧ 40%) |
| ≥ 40 | ≤ 100 | ≤ 100 | N#Cc1cc(C(F)(F)F)ccc1/C(=C(\c1ccc(/C=C/C(=O)O)cc1)c1ccc2[nH]nc(F)c2c1)C1CCC1 [Example 243, (E)-3-(4-((E)-2-(2-Cyano-4-(trifluoromethyl)phenyl)-2-cyclobutyl-1-(3-fluoro-1H-indazol-5-yl)vinyl)phenyl)acrylic acid] | ++ (++ = a single % value ≧ 40%) |
| ≥ 40 | ≤ 100 | ≤ 100 | O=C(O)/C=C/c1ccc(/C(=C(\c2ncc(C(F)(F)F)cc2Cl)C2CCC2)c2ccc3scnc3c2)cc1 [Example 244, (E)-3-(4-((E)-1-(Benzo[d]thiazol-5-yl)-2-(3-chloro-5-(trifluoromethyl)pyridin-2-yl)-2-cyclobutylvinyl)phenyl)acrylic acid] | ++ (++ = a single % value ≧ 40%) |
| ≥ 40 | ≤ 100 | ≤ 100 | COc1cc(C)c(/C(=C(\c2ccc(/C=C/C(=O)O)cc2)c2cccc3[nH]nc(F)c23)C2CCC2)cn1 [Example 245, (E)-3-(4-((E)-2-Cyclobutyl-1-(3-fluoro-1H-indazol-4-yl)-2-(6-methoxy-4-methylpyridin-3-yl)vinyl)phenyl)acrylic acid] | ++ (++ = a single % value ≧ 40%) |
| ≥ 40 | ≤ 100 | ≤ 100 | O=C(O)/C=C/c1ccc(/C(=C(\c2ncccc2Cl)C2CCC2)c2cccc3[nH]nc(F)c23)cc1 [Example 246, (E)-3-(4-((E)-2-(3-Chloropyridin-2-yl)-2-cyclobutyl-1-(3-fluoro-1H-indazol-4-yl)vinyl)phenyl)acrylic acid] | ++ (++ = a single % value ≧ 40%) |
| ≥ 40 | ≤ 100 | ≤ 100 | N#Cc1cccnc1/C(=C(\c1ccc(/C=C/C(=O)O)cc1)c1ccc2[nH]nc(F)c2c1)C1CCC1 [Example 247, (E)-3-(4-((E)-2-(3-Cyanopyridin-2-yl)-2-cyclobutyl-1-(3-fluoro-1H-indazol-5-yl)vinyl)phenyl)acrylic acid] | ++ (++ = a single % value ≧ 40%) |
| ≥ 40 | ≤ 100 | ≤ 100 | N#Cc1n[nH]c2ccc(/C(=C(/c3ccc(F)cc3Cl)C3CCC3)c3ccc(/C=C/C(=O)O)cc3)cc12 [Example 248, (E)-3-(4-((E)-2-(2-Chloro-4-fluorophenyl)-1-(3-cyano-1H-indazol-5-yl)-2-cyclobutylvinyl)phenyl)acrylic acid] | ++ (++ = a single % value ≧ 40%) |
| ≥ 40 | ≤ 100 | ≤ 100 | N#Cc1cc(Cl)cnc1/C(=C(\c1ccc(/C=C/C(=O)O)cc1)c1ccc2[nH]nc(F)c2c1)C1CCC1 [Example 249, (E)-3-(4-((E)-2-(5-Chloro-3 cyanopyridin-2-yl)-2-cyclobutyl-1-(3-fluoro-1H-indazol-5-yl)vinyl)phenyl)acrylic acid] | ++ (++ = a single % value ≧ 40%) |
| ≥ 40 | ≤ 100 | ≤ 100 | O=C(O)/C=C/c1ccc(/C(=C(\c2ncc(C(F)(F)F)cc2Cl)C2CCC2)c2ccc3[nH]nc(F)c3c2)cc1 [Example 250, (E)-3-(4-((E)-2-(3-Chloro-5-(trifluoromethyl)pyridin-2-yl)-2-cyclobutyl-1-(3-fluoro-1H-indazol-5-yl)vinyl)phenyl)acrylic acid] | ++ (++ = a single % value ≧ 40%) |
| ≥ 40 | ≤ 100 | ≤ 100 | O=C(O)/C=C/c1ccc(/C(=C(\c2ncc(F)cc2Cl)C2CCC2)c2ccc3[nH]nc(F)c3c2)cc1 [Example 251, (E)-3-(4-((E)-2-(3-Chloro-5-fluoropyridin-2-yl)-2-cyclobutyl-1-(3-fluoro-1H-indazol-5-yl)vinyl)phenyl)acrylic acid] | ++ (++ = a single % value ≧ 40%) |
| ≥ 40 | ≤ 100 | > 100 | O=C(O)/C=C/c1ccc(/C(=C(\c2ccc(F)cc2Cl)C2CCC2)c2ccc3[nH]nc(C(F)(F)F)c3c2)cc1 [Example 252, (E)-3-(4-((E)-2-(2-Chloro-4-fluorophenyl)-2-cyclobutyl-1-(3-(trifluoromethyl)-1H-indazol-5-yl)vinyl)phenyl)acrylic acid] | ++ (++ = a single % value ≧ 40%) |
| ≥ 40 | ≤ 100 | ≤ 100 | O=C(O)/C=C/c1ccc(/C(=C(\c2ncc(F)cc2Cl)C2CCC2)c2ccc3[nH]nc(F)c3c2)cc1F [Example 253, (E)-3-(4-((Z)-2-(3-Chloro-5-fluoropyridin-2-yl)-2-cyclobutyl-1-(3-fluoro-1H-indazol-5-yl)vinyl)-2-fluorophenyl)acrylic acid] | ++ (++ = a single % value ≧ 40%) |
| ≥ 40 | ≤ 100 | ≤ 100 | O=C(O)/C=C/c1ccc(/C(=C(\c2ncc(Cl)cc2Cl)C2CCC2)c2ccc3[nH]nc(F)c3c2)cc1F [Example 254, (E)-3-(4-((Z)-2-Cyclobutyl-2-(3,5-dichloropyridin-2-yl)-1-(3-fluoro-1H-indazol-5-yl)vinyl)-2-fluorophenyl)acrylic acid] | ++ (++ = a single % value ≧ 40%) |
| ≥ 40 | ≤ 100 | ≤ 100 | CCOC(=O)/C=C/c1ccc(/C(=C(\c2ncc(Cl)cc2Cl)C2CCC2)c2ccc3[nH]nc(F)c3c2)cc1F [Example 255, (E)-Ethyl 3-(4-((Z)-2-cyclobutyl-2-(3,5-dichloropyridin-2-yl)-1-(3-fluoro-1H-indazol-5-yl)vinyl)-2-fluorophenyl)acrylate] | + (+ = a single % value < 40%) |
| ≥ 40 | ≤ 100 | ≤ 100 | COc1ccc(/C(=C(\c2ccc(/C=C/C(=O)O)c(F)c2)c2ccc3[nH]nc(F)c3c2)C2CCC2)c(Cl)c1 [Example 256, (E)-3-(4-((Z)-2-(2-Chloro-4-methoxyphenyl)-2-cyclobutyl-1-(3-fluoro-1H-indazol-5-yl)vinyl)-2-fluorophenyl)acrylic acid] | ++ (++ = a single % value ≧ 40%) |
| ≥ 40 | ≤ 100 | ≤ 100 | O=C(O)/C=C/c1ccc(/C(=C(\c2ncc(Cl)cc2C(F)(F)F)C2CCC2)c2ccc3[nH]nc(F)c3c2)cc1 [Example 257, (E)-3-(4-((E)-2-(5-Chloro-3-(trifluoromethyl)pyridin-2-yl)-2-cyclobutyl-1-(3-fluoro-1H-indazol-5-yl)vinyl)phenyl)acrylic acid] | ++ (++ = a single % value ≧ 40%) |
| ≥ 40 | ≤ 100 | ≤ 100 | O=C(O)/C=C/c1ccc(/C(=C(\c2cnc(C(F)(F)F)cc2C(F)(F)F)C2CCC2)c2ccc3[nH]nc(F)c3c2)cc1 [Example 258, (E)-3-(4-((E)-2-(4,6-bis(Trifluoromethyl)pyridin-3-yl)-2-cyclobutyl-1-(3-fluoro-1H-indazol-5-yl)vinyl)phenyl)acrylic acid] | ++ (++ = a single % value ≧ 40%) |
| ≥ 40 | ≤ 100 | ≤ 100 | O=C(O)/C=C/c1ccc(/C(=C(\c2ncccc2Cl)C2CCC2)c2ccc3[nH]nc(F)c3c2)cn1 [Example 259, (E)-3-(5-((Z)-2-(3-Chloropyridin-2-yl)-2-cyclobutyl-1-(3-fluoro-1H-indazol-5-yl)vinyl)pyridin-2-yl)acrylic acid] | ++ (++ = a single % value ≧ 40%) |
